From paper PMC10818749, “Toxicity Studies of Cardiac-Targeting Peptide Reveal a Robust Safety Profile” (Pharmaceutics, 2024)
“Also recorded” adds a separate entry of the source. Ends that are not written are not given here.

Assays:
[1] = system: seventy-eight protein channels; assay: Eurofins SAFETYscan E/IC50 ELECT (all seventy-eight assays); conditions: CTP 0.1 µM to 30 µM
Method: Eurofins Toxicology Study: In vitro toxicology studies were performed by Eurofins Scientific through both their Ion Channel Profiler and Cardiac Profiler Panel and their DiscoverX’s SAFETYscan E/IC50 […] service. Increasing concentrations of CTP (0.1 µM to 30 µM) were tested against various ion channels and a total of seventy-eight assays performed utilizing various output reads, including GPCR cAMP modulation assays, calcium mobilization assays, nuclear hormone receptor assays, KINOMEscan binding assays, ion channel assays, transporter assays, and enzymatic assays. All methods described below were performed, described, and reported by Eurofins Scientific in their study report (Supplementary Methods S1 and S2).
GPCR cAMP modulation assays, calcium mobilization assays, nuclear hormone receptor assays, KINOMEscan binding assays, ion channel assays, transporter assays, and enzymatic assays were performed by Eurofins under GLP standards.
DiscoverX was contracted by Maliha Zahid at Mayo Clinic to profile 1 compound(s) with the SAFETYscan E/IC50 ELECT service. Details are
Product: SAFETYscan E/IC50 ELECT
ADOR A2A- Calci um Flux-Agonist DRD2S-cAMP-Agonist HTR3A-Ion Channel-Blocker
ADORA2A-Calcium Flux-Antagonist DRD2S-cAMP-Antagonist HTR3A-Ion Channel-Opener
ADRA1A-Calcium Flux-Agonist EDNRA-Calcium Flux-Agonist KvLQT1/minK-Ion Channel-Blocker […]

[2] = system: cardiomyocytes; conditions: cited from earlier work
Source text: Targeted delivery of therapeutics specifically to cardiomyocytes would open up new frontiers for common conditions like heart failure. […] CTP has been used to deliver imaging agents, small drug molecules, photosensitizing nanoparticles, exosomes, and even miRNA to cardiomyocytes. As a natural extension to the development of CTP as a clinically viable ... || Advances in the development of novel technologies in pharmaceutics today necessitate the development of safe and effective targeted delivery methods for cargoes such as nanoparticles, siRNA, drugs, and more. Cell-penetrating peptides (CPPs), which are small, positively charged peptides capable of crossing the cell membrane barrier, provide a promising method for intracellular delivery, which is highly efficient and minimally cytotoxic. Tat (HIV trans-activator of transcription) was the first CPP to be discovered to enter the cell and induce the expression of viral genes ... || Heart disease and cardiac illness continue to be a leading cause of death in the US [16], and, as such, novel treatments for increasingly prevalent conditions such as heart failure and atrial fibrillation are sorely needed.

[3] = system: CD1-wildtype mice; assay: Mouse toxicity studies (weight, blood count, serum chemistries); type: in vivo; conditions: for alkaline phosphatase level, individual mouse: female
Method: Mouse Toxicity Studies: Sixty CD1-wildtype mice (1:1 male to female ratio) were obtained from Charles River and divided into 6 groups of 10, 5 females and 5 males each. Ten control mice were injected with 1X PBS. Treated mice were injected intravenously with a single dose of CTP 150 μg/Kg. Groups of 10 treated mice (5 male, 5 female) were euthanized on day 0 (immediately after injection), 1, 2, 7, and 14 post-injection using inhalational CO2. After euthanasia, the chest cavity was opened, and blood drawn via cardiac puncture for complete blood count and serum chemistries. Following the blood draw, the right atrium was nicked and the whole animal perfusion fixed using 3 mL of formalin injected into the left ventricular apex. The control group was euthanized on day 2. A complete blood count, metabolic profile, and thyroid studies were performed.

[4] = female mice, CTP 150 μg/Kg single i.v., Day 0, recovered by Day 1
[5] = female mice, CTP 150 μg/Kg single i.v., vs control
[6] = male mice, CTP 150 μg/Kg single i.v., vs control

## APWHLSSQYSRT [CTP]
[1]
  significant interactions across all seventy-eight assays: No significant activation or inhibition of any of seventy-eight protein channels was observed other than OPRM1 and COX2 at the highest tested concentration; also recorded: only two showed significant interactions
[2]; fibroblasts, endothelial cells, myofibroblasts spared, ref [19]
  cell specificity in the heart: targets cardiomyocytes specifically while sparing the other cells
[2]; intravenous injection, "in as little as", ref our prior work
  time to targeting of cardiomyocytes after intravenous injection: ~5 min
[2]; peripheral intravenous injection, "in as little as", ref [6],[15]
  time to transduction of cardiomyocytes after intravenous injection: ~15 min
[2]; ref [15]
  blood–brain barrier crossing: does not cross the blood–brain barrier
  uptake by other tissues: not taken up by the lungs, spleen, or other muscle subtypes
[3]; CTP 150 µg/Kg single dose, except borderline alkaline phosphatase increase in female mice
  toxicity signals overall: no significant toxicity signals
[3]; control vs injected mice of each sex, CTP 150 μg/Kg single i.v., two-week course
  body weight: no significant difference
[3]; female mice, any of the groups, upper limit of normal not crossed, CTP 150 μg/Kg single i.v.
  mean alkaline phosphatase level: ≤ 140 IU/L
[3]; female mice, CTP 150 μg/Kg single i.v.
  alkaline phosphatase recovery: returning to baseline by Day 2
[3]; [4]
  platelet count: decreased on Day 0; also recorded: significant decrease
  white blood cell count: decreased on Day 0; also recorded: significant decrease
[3]; female mice, CTP 150 μg/Kg single i.v., only on Day 0, recovered by Day 1
  bilirubin: significant decrease
[3]; [5]
  alanine aminotransferase: no significant difference
  alkaline phosphatase change: borderline increase in alkaline phosphatase levels in female mice on Days 0 and 1, with recovery to control levels by Day 2; also recorded: rise in alkaline phosphatase
  aspartate aminotransferase: no significant difference
  blood urea nitrogen: no significant difference
  creatinine: no significant difference
  hemoglobin: no significant difference
[3]; day 0, first of two borderline elevated mice, CTP 150 μg/Kg single i.v.
  alkaline phosphatase level, individual mouse: 151 IU/L
[3]; day 0, second of two borderline elevated mice, CTP 150 μg/Kg single i.v.
  alkaline phosphatase level, individual mouse: 166 IU/L
[3]; male mice, CTP 150 μg/Kg single i.v., normalizing at later time-points
  calcium levels: increased marginally only on Day 0
[3]; [6]
  alanine aminotransferase: no difference
  alkaline phosphatase: no difference
  aspartate aminotransferase: no difference
  blood urea nitrogen: decrease; also recorded: significantly lower on Days 0–2
  creatinine: decrease; also recorded: significantly lower on Days 0–2
  hemoglobin: no difference
  phosphorous levels: no difference
  platelet count: no difference
  total bilirubin: no difference
  white blood cell count: no difference
